IC50 and EC50 data for nine molecules are collected here from patent US10981932B2, “Macrocyclic indole derivatives” (Bayer Aktiengesellschaft, priority 2016, dated 2021).

Counter-ions that a name gives are not always drawn. Like-named read-outs stand apart in the source and are kept apart here.

Data set [1] concerns SUDHL10. The experiment in a line: Anti-proliferative effect (CellTiter-Glo, 72 h), SUDHL10. It is filed as cell-based. The note with it: Homo sapiens, SU-DHL10, 72 h, SUDHL10 cells, antiproliferation, 72 h incubation, median, read-out: Antiproli SUDHL10 [M] (median). On the procedure: Assessment of the Anti-Proliferative Effect of Compounds in Different Cell Lines
The impact of compounds on the proliferation of different cell lines was assessed using the CellTiter-Glo® Luminescent Cell Viability reagent from Promega (G7573). Of note, SUDHL10 and SUDHL5 (DLBCL), NCI-H929 (Multiple Myeloma), A2780 (ovarian carcinoma) as well as MV-4-11(AML) cells are sensitive to MCL-1 inhibition.
In parallel, cells were plated in a reference (day 0) plate for time zero determination.
Rim wells were excluded. The cells were incubated for 72 h hours in a humidified incubator at 37° C. The day 0 plate was measured by adding 30 μl/well of CTG solution (CellTiter-Glo® Luminescent Cell Viability reagent, Promega G7573) to time zero wells in the reference plate followed by a 10 minutes incubation and luminescence reading at 0.1 ms, using the PHERAstar FS microplate reader (BMG Labtech).
After 72 h incubation, the treated plates were measured in the same way as the day 0 plate mentioned above.

In data set [2] the test system is SUDHL5. The experiment in a line: Induction of cytotoxicity (CellTiter-Glo, 5 h), SUDHL5. (In general: ATP-based viability assays read luminescence as a measure of living cells.)
In data set [3] the test system is SUDHL10. The data set is described as follows: Induction of cytotoxicity (CellTiter-Glo, 5 h), SUDHL10.
Data set [4] concerns the target MCL-1 (Homo sapiens, UniProt Q07820). The data set is described as follows: Protein-protein interaction assay MCL-1/Noxa BH3 peptide (MCL-1 assay), TR-FRET. The class given is binding. The note with it: MBP-MCL-1 / Noxa BH3-derived peptide, median. The procedure, abridged: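 Displacement of the biotinylated Noxa BH3 peptide from MBP-tagged human MCL-1 (1 nM) is detected by time-resolved FRET. Compounds are tested in duplicate across eleven concentrations up to 20 μM, incubated 1 h at 22 °C and overnight at 4 °C, and IC50 is fitted with a four-parameter equation.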
(In TR-FRET formats the signal depends on donor and acceptor labels being close together.)

Data set [5] has as its system SUDHL10. The experiment in a line: Induction of caspase-3/7 activity (Caspase-Glo 3/7), SUDHL10. The note with it: caspase-3/7 induction, SUDHL10 cells, 3 h treatment, median. It is filed as cell-based. The procedure, abridged:
(§1)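 Caspase-Glo 3/7 luminescence, 3 h compound exposure, 37 °C, humidified. Minus medium-only blank. EC50 fit: C0=1, plateau = reference max induction.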

Data set [6] has as its system SUDHL5. The data set is described as follows: Anti-proliferative effect (CellTiter-Glo, 72 h), SUDHL5. It is filed as cell-based. To be noted: SUDHL5 cells, antiproliferation, 72 h incubation, median, read-out: Antiproli SUDHL5 [M] (median). The method, boiled down: (§2)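 CTG luminescence read-out after 72 h compound exposure, 37 °C, humidified. Time-zero reference plate read at plating.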

Data set [7] has as its system SUDHL5. The data set is described as follows: Induction of caspase-3/7 activity (Caspase-Glo 3/7), SUDHL5. The class given is cell-based. To be noted: caspase-3/7 induction, SUDHL5 cells, 3 h treatment, median. The procedure, abridged: as §1
The subject of data set [8] is A2780. The experiment in a line: Anti-proliferative effect (CellTiter-Glo, 72 h), A2780. To be noted: A2780 cells, median, read-out: IC50 antiproliferation assay A2780 [M] (median). It is filed as cell-based. The method, boiled down:
as §2

[9] abbreviates: Homo sapiens, SU-DHL-5, 5 h, read-out: Cytotox SUDHL5 [M] (median), SUDHL5 cells, cytotoxicity induction, CellTiter-Glo, 5 h incubation, median.
The mark [10] stands for this setting: Homo sapiens, SU-DHL10, 5 h, read-out: Cytotox SUDHL10 [M] (median), SUDHL10 cells, cytotoxicity induction, CellTiter-Glo, 5 h incubation, median.
The mark [11] stands for this setting: read-out: Cytotox SUDHL5 [M] (median), SUDHL5 cells, cytotoxicity induction, CellTiter-Glo, 5 h incubation, median.
Setting [12] is: read-out: Cytotox SUDHL10 [M] (median), SUDHL10 cells, cytotoxicity induction, CellTiter-Glo, 5 h incubation, median.

By EC50 is commonly meant the concentration at which the effect is half-maximal. Read a low EC50 as an effect from little substance.

Sequence of MCL-1 (Q07820 whole entry): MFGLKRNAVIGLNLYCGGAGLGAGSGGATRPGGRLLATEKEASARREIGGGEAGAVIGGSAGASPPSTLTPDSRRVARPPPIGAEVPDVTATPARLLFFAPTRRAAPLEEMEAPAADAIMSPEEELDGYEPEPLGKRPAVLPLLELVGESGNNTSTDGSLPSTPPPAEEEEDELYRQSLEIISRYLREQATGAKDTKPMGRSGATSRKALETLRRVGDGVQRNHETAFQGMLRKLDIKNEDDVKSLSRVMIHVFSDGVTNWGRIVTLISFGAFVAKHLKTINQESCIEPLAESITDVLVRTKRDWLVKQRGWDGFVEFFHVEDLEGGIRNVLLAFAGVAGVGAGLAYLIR

For `CCc1c2c(nn1CCN1CCOCC1)COCCCCn1c(C(=O)O)c(CCCOc3cccc4ccccc34)c3cccc-2c31` (racemic) [Example 201, (rac)-3-ethyl-2-[2-(morpholin-4-yl)ethyl]-7-[3-(naphthalen-1-yloxy)propyl]-2,10,11,12,13,15-hexahydropyrazolo[4′,3′:9,10][1,6]oxazacycloundecino[8,7,6-hi]indole-8-carboxylic Acid], the IC50 was determined as 7.54e-06 M in data set [1]; 2.57e-06 M in data set [2] (setting [9]); 7.98e-06 M in data set [3] (setting [10]); 0.00427 µM in data set [4]; 4.3e-06 M in data set [6] (Homo sapiens, SU-DHL-5, 72 h). Also, the EC50 in data set [5] (Homo sapiens, SU-DHL10, 3 h) was found to be 8.57 µM; in data set [7] (Homo sapiens, SU-DHL-5, 3 h), 2.53 µM.
With `Cc1nn(C)c2c1-c1cccc3c(CCCOc4cccc5cc(Cl)ccc45)c(C(=O)O)n(c13)CCCCOC2` (single isomer, unassigned; enantiomer 2) [Example 042, 7-{3-[(6-chloronaphthalen-1-yl)oxy]propyl}-1,3-dimethyl-1,10,11,12,13,15-hexahydropyrazolo[4′3′:9,10][1,6]oxazacycloundecino[8,7,6-hi]indole-carboxylic acid-N-ethylethanamine Salt (Enantiomer 2)], the IC50 in data set [2] (setting [11]) was greater than 3.3e-05 M; in data set [3] (setting [12]) it was 3e-05 M; in data set [4], 0.0566 µM; in data set [6], 4.97e-06 M; in data set [8], 1.02e-05 M. In addition, the EC50 in data set [5] and in data set [7] was greater than 33 µM throughout.
As for `Cc1nn(C)c2c1-c1cccc3c(CCCOc4cccc5ccccc45)c(C(=O)O)n(c13)CCCOC2` (single isomer, unassigned; enantiomer 2) [Example 045, 9,11-dimethyl-1-[3-(naphthalen-1-yloxy)propyl]-5,6,8,9-tetrahydro-4H-pyrazolo[4′,3′:8,9][1,5]oxazecino[7,6,5-hi]indole-2-carboxylic acid-N-ethylethanamine Salt (Enantiomer 2)], the IC50 in data set [2] (setting [11]) was determined as 2.59e-05 M; in data set [3] (setting [12]), 2.89e-05 M; in data set [4], 0.0259 µM; in data set [6], 5.73e-06 M; in data set [8], 2.78e-05 M. Besides, the EC50 was 32.7 µM in data set [5] and greater than 33 µM in data set [7].
With `Cc1nn(C)c2c1-c1cccc3c(CCCOc4cccc5cc(F)ccc45)c(C(=O)O)n(c13)CCCOC2` (single isomer, unassigned; enantiomer 2) [Example 048, 1-{3-[(6-fluoronaphthalen-1-yl)oxy]propyl}-9,11-dimethyl-5,6,8,9-tetrahydro-4H-pyrazolo[4′,3′:8,9][1,5]oxazecino[7,6,5-hi]indole-2-carboxylic acid-N-ethylethanamine Salt (Enantiomer 2)], the IC50 in data set [2] (setting [9]) amounted to 1.19e-05 M; in data set [3] (setting [10]), 1.71e-05 M; in data set [4], 0.0136 µM; in data set [6] (Homo sapiens, SU-DHL-5, 72 h) it was 4.84e-06 M; in data set [8] (Homo sapiens, A2780, 72 h) it was 1.01e-05 M. Also, the concentration for a half-maximal effect (EC50) in data set [5] (Homo sapiens, SU-DHL10, 3 h) turned out to be 17.8 µM; in data set [7] (Homo sapiens, SU-DHL-5, 3 h), 13.2 µM.
Take `Cc1c2c(nn1C)COCCCn1c(C(=O)O)c(CCCOc3cccc4ccccc34)c3cccc-2c31` (single isomer, unassigned; enantiomer 2) [Example 065, 10,11-dimethyl-1-[3-(naphthalen-1-yloxy)propyl]-5,6,8,10-tetrahydro-4H-pyrazolo[4′,3′:8,9][1,5]oxazecino[7,6,5-hi]indole-2-carboxylic acid-N-ethylethanamine Salt (Enantiomer 2)]: the IC50 is greater than 3.3e-05 M in data set [2] (setting [11]); greater than 3.3e-05 M in data set [3] (setting [12]); 0.0393 µM in data set [4]; 2.61e-05 M in data set [6]; greater than 3.3e-05 M in data set [8]. Further, the concentration for a half-maximal effect (EC50) in data set [5] and in data set [7] was greater than 33 µM each time.
Turning to `CCn1nc(C2CC2)c2c1COCCCCn1c(C(=O)O)c(CCCOc3cccc4ccccc34)c3cccc-2c31` (single isomer, unassigned; enantiomer 2) [Example 090, 3-cyclopropyl-1-ethyl-7-[3-(naphthalen-1-yloxy)propyl]-1,10,11,12,13,15-hexahydropyrazolo[4′3′:9,10][1,6]oxazacycloundecino[8,7,6-hi]indole-8-carboxylic acid-N-ethylethanamine Salt (Enantiomer 2)], the IC50 in data set [2] (setting [11]) was greater than 3.3e-05 M; in data set [3] (setting [12]) it was greater than 3.3e-05 M; in data set [4], 0.0103 µM; in data set [6] it was 1.5e-05 M; in data set [8] it was 1.98e-05 M. Also, the EC50 in data set [5] and in data set [7] was greater than 33 µM each time.
Turning to `CCc1c2c(nn1C)COCCCCn1c(C(=O)O)c(CCCOc3cccc4ccccc34)c3cccc-2c31` (single isomer, unassigned; enantiomer 2) [Example 149, 3-Ethyl-2-methyl-7-[3-(1-naphthyloxy)propyl]-2,10,11,12,13,15-hexahydropyrazolo[4′,3′:9,10][1,6]oxazacycloundecino[8,7,6-hi]indole-carboxylic acid-N-ethylethanamine Salt (Enantiomer 2)], the IC50 in data set [2] (setting [11]) was greater than 3.3e-05 M; in data set [3] (setting [12]), greater than 3.3e-05 M; in data set [4] it was 0.0666 µM; in data set [6] it was 1.26e-05 M; in data set [8], 2.84e-05 M. For the same molecule, the EC50 in data set [5] and in data set [7] was greater than 33 µM in each case.
As for `CCc1c2c(nn1C)COCCCCn1c(C(=O)O)c(CCCOc3cccc4ccccc34)c3ccc(C)c-2c31` (single isomer, unassigned; enantiomer 2) [Example 155, 3-Ethyl-2,4-dimethyl-7-[3-(1-naphthyloxy)propyl]-2,10,11,12,13,15-hexahydropyrazolo[4′,3′:9,10][1,6]oxazacycloundecino[8,7,6-hi]indole-8-carboxylic acid-N-ethylethanamine Salt (Enantiomer 2)], the IC50 in data set [2] (setting [11]) was greater than 3.3e-05 M; in data set [3] (setting [12]), greater than 3.3e-05 M; in data set [4], 0.048 µM; in data set [6], 8.34e-06 M; in data set [8] it was 2.25e-05 M. Moreover, the EC50 in data set [5] and in data set [7] was greater than 33 µM throughout.
With `Cc1c2c(nn1CC(F)(F)F)COCCCCn1c(C(=O)O)c(CCCOc3cccc4ccccc34)c3cccc-2c31` [Example 241, 3-methyl-7-[3-(naphthalen-1-yloxy)propyl]-2-(2,2,2-trifluoroethyl)-210,11,12,13,15-hexahydropyrazolo[4′,3′:9,10][1,6]oxazacycloundecino[8,7,6-hi]indole-8-carboxylic Acid], the IC50 in data set [2] (setting [9]) was 4.64e-06 M; in data set [3] (setting [10]), 1.92e-05 M; in data set [4], 0.00751 µM; in data set [6] (Homo sapiens, SU-DHL-5, 72 h) it was 9.89e-06 M; in data set [8] (Homo sapiens, A2780, 72 h), 2.89e-05 M. Further, the EC50 was 17.1 µM in data set [5] (Homo sapiens, SU-DHL10, 3 h) and 3.75 µM in data set [7] (Homo sapiens, SU-DHL-5, 3 h).
